In ChEMBL document CHEMBL1126623, “Neuraminidase-resistant hemagglutination inhibitors: acrylamide copolymers containing a C-glycoside of N-acetylneuraminic acid” (J Med Chem, 1993):

Organism: Gallus gallus
Assay: Tested for inhibition of agglutination of chicken erythrocytes in vitro
Type: functional

C=CC(=O)NCCSCCCC1(C(=O)O)CC(O)C(NC(C)=O)C(C(O)C(O)CO)O1 (stereo unspecified)
Ki: 400 nM
